Experimental data taken from PubChem BioAssay AID278 (DTP/NCI, 2004).
“And” between values parts separate entries of the source, which are not always exact repeats. Equal values may be shown once. Inconclusive results are not listed.

Tested on: nude mice, A549 intrarenal xenograft, tumor weight change
Assay: NCI In Vivo Anticancer Drug Screen. Data for tumor model A549 Human Adenocarcinoma of Lung with characteristics of Type II Alveolar Epithelial cells (intrarenal inoculation) in NU/NU BALB/C (nude) mice
Details: endpoint: mean tumor weight change, schedule: Q04DX003 (ip), higher = larger tumour
Outline: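 Activity is expressed as T/C: the treated-group value over the vehicle-treated control value. The measure was survival or tumor size in mice carrying transplantable tumors.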

[1] = dose: 12.5 mg/kg/injection, vehicle: Klucel (hydroxypropylcellulose) (HPC)
[2] = dose: 100.0 mg/kg/injection, vehicle: Klucel (hydroxypropylcellulose) (HPC)
[3] = dose: 25.0 mg/kg/injection, vehicle: water
[4] = dose: 50.0 mg/kg/injection, vehicle: water
[5] = dose: 25.0 mg/kg/injection, vehicle: saline
[6] = dose: 50.0 mg/kg/injection, vehicle: saline
[7] = dose: 6.25 mg/kg/injection, vehicle: saline
[8] = dose: 12.5 mg/kg/injection, vehicle: saline with Tween-80
[9] = dose: 25.0 mg/kg/injection, vehicle: saline with Tween-80

CN(C)N=Nc1ccc(C(N)=O)cc1
T/C (dose: 22.5 mg/kg/injection, vehicle: saline with Tween-80): 65 % of control
T/C (dose: 45.0 mg/kg/injection, vehicle: saline with Tween-80): 55 % of control
T/C (dose: 90.0 mg/kg/injection, vehicle: saline with Tween-80): 54 % of control
T/C (dose: 180.0 mg/kg/injection, vehicle: saline with Tween-80): 17 % of control
T/C (dose: 216.0 mg/kg/injection, vehicle: saline with Tween-80): 39 % of control
T/C (dose: 360.0 mg/kg/injection, vehicle: saline with Tween-80): 2 % of control and 15 % of control

COc1cc(C(C)c2cc3c(cc2OCCO)OCO3)cc(OC)c1OC (stereo not drawn)
T/C (dose: 125.0 mg/kg/injection, vehicle: suspension in saline): 117 % of control
T/C (dose: 250.0 mg/kg/injection, vehicle: suspension in saline): 72 % of control

CC1Oc2cc3c(-c4c(O)cc(O)c5c(O)c6c(cc45)OC(C)C(C)C6=O)c(O)cc(O)c3c(O)c2C(=O)C1C (stereo not drawn)
T/C (dose: 0.19 mg/kg/injection, vehicle: suspension in saline): 60 % of control
T/C (dose: 0.38 mg/kg/injection, vehicle: suspension in saline): 51 % of control
T/C (dose: 0.75 mg/kg/injection, vehicle: suspension in saline): 83 % of control
T/C (dose: 3.0 mg/kg/injection, vehicle: suspension in saline): 63 % of control
T/C (dose: 6.0 mg/kg/injection, vehicle: suspension in saline): 77 % of control

O=C(/C=C/c1cccnc1)/C=C/c1cccnc1
T/C [1]: 91 % of control
T/C [2]: 54 % of control

CCCCCCCCCCCCN1C(C)=CS/C1=C\C=C\c1scc(C)[n+]1CCCCCCCCCCCC
T/C (dose: 0.75 mg/kg/injection, vehicle: saline with Tween-80): 112 % of control
T/C (dose: 1.5 mg/kg/injection, vehicle: saline with Tween-80): 87 % of control
T/C (dose: 6.0 mg/kg/injection, vehicle: saline with Tween-80): 36 % of control

CCC(=O)[O][Bi]([c]1ccccc1)[c]1ccccc1
T/C (dose: 6.25 mg/kg/injection, vehicle: Klucel (hydroxypropylcellulose) (HPC)): 79 % of control
T/C [1]: 49 % of control
T/C (dose: 25.0 mg/kg/injection, vehicle: Klucel (hydroxypropylcellulose) (HPC)): 43 % of control

O=NNc1ccc(Cl)cn1
T/C (dose: 5.0 mg/kg/injection, vehicle: water): 63 % of control
T/C (dose: 6.25 mg/kg/injection, vehicle: water): 113 % of control
T/C (dose: 10.0 mg/kg/injection, vehicle: water): 68 % of control
T/C (dose: 12.5 mg/kg/injection, vehicle: water): 62 % of control
T/C (dose: 20.0 mg/kg/injection, vehicle: water): 100 % of control
T/C [3]: 61 % of control
T/C (dose: 40.0 mg/kg/injection, vehicle: water): 57 % of control
T/C [4]: 26 % of control

Nc1nc(Br)nc2c1ncn2C1CC(O)C(CO)O1 (stereo not drawn)
T/C [5]: 92 % of control
T/C [6]: 121 % of control
T/C (dose: 100.0 mg/kg/injection, vehicle: saline): 96 % of control
T/C (dose: 200.0 mg/kg/injection, vehicle: saline): 74 % of control

CS(=O)(=O)CS(=O)(=O)OCCF
T/C [7]: 40 % of control
T/C (dose: 12.5 mg/kg/injection, vehicle: saline): 62 % of control
T/C [5]: 50 % of control
T/C [6]: 50 % of control

Nc1ncnc2c1nc(Cl)n2C1OC2COP(=O)(O)OC2C1O (stereo not drawn)
T/C [3]: 198 % of control
T/C [4]: 85 % of control

COc1cc2c[n+](C)c3c(c2cc1OC)Cc1cc2c(cc1-3)OCO2
T/C (dose: 18.75 mg/kg/injection, vehicle: saline with Tween-80): 39 % of control

[CH3][Sn]([CH3])([Cl])[c]1cc[c]([Sn]([CH3])([CH3])[Cl])cc1
T/C (dose: 1.25 mg/kg/injection, vehicle: saline): 84 % of control
T/C (dose: 2.5 mg/kg/injection, vehicle: saline): 160 % of control
T/C (dose: 5.0 mg/kg/injection, vehicle: saline): 70 % of control

O=C1C(=O)c2cccnc2-c2ncccc21
T/C (dose: 1.25 mg/kg/injection, vehicle: Klucel (hydroxypropylcellulose) (HPC)): 59 % of control
T/C (dose: 2.5 mg/kg/injection, vehicle: Klucel (hydroxypropylcellulose) (HPC)): 55 % of control
T/C (dose: 10.0 mg/kg/injection, vehicle: Klucel (hydroxypropylcellulose) (HPC)): 6 % of control

CCN(CC)CC(C)(C)C(=O)/C=C/c1ccc(/C=C/C(=O)C(C)(C)CN(CC)CC)cc1
T/C (dose: 15.0 mg/kg/injection, vehicle: saline): 84 % of control
T/C (dose: 30.0 mg/kg/injection, vehicle: saline): 73 % of control
T/C (dose: 60.0 mg/kg/injection, vehicle: saline): 82 % of control

CCOC(=O)/N=[N+](\[O-])c1ccccc1
T/C [8]: 156 % of control
T/C [9]: 245 % of control
T/C (dose: 50.0 mg/kg/injection, vehicle: saline with Tween-80): 217 % of control

O=C(NC(Cc1ccc(I)cc1)C(=O)O)c1ccc(Br)cc1 (stereo not drawn)
T/C (dose: 37.5 mg/kg/injection, vehicle: other): 51 % of control
T/C (dose: 37.5 mg/kg/injection, vehicle: sodium bicarbonate): 78 % of control
T/C (dose: 75.0 mg/kg/injection, vehicle: other): 7 % of control
T/C (dose: 75.0 mg/kg/injection, vehicle: sodium bicarbonate): 103 % of control
T/C (dose: 150.0 mg/kg/injection, vehicle: other): 9 % of control
T/C (dose: 150.0 mg/kg/injection, vehicle: sodium bicarbonate): 83 % of control

COC(=O)C1(F)C(=O)NC(=O)NC1OC (stereo not drawn)
T/C (dose: 400.0 mg/kg/injection, vehicle: Klucel (hydroxypropylcellulose) (HPC)): 115 % of control
T/C (dose: 800.0 mg/kg/injection, vehicle: Klucel (hydroxypropylcellulose) (HPC)): 116 % of control
T/C (dose: 1600.0 mg/kg/injection, vehicle: Klucel (hydroxypropylcellulose) (HPC)): 94 % of control

CC(C)N1C(=O)N(Cl)C2C1N(Cl)C(=O)N2Cl (stereo not drawn)
T/C [8]: 51 % of control and 76 % of control
T/C [9]: 18 % of control

CCOc1ccc(-c2nc3ccc(-c4nc5ccc(N6CCN(C)CC6)cc5[nH]4)cc3[nH]2)cc1
T/C [7]: 155 % of control
T/C [5]: 101 % of control
T/C [6]: 171 % of control

CN(C)c1ccc2c(Nc3ccc(NS(C)(=O)=O)cc3)c3ccc(N(C)C)cc3nc2c1
T/C (dose: 50.0 mg/kg/injection, vehicle: Klucel (hydroxypropylcellulose) (HPC)): 116 % of control
T/C [2]: 39 % of control
T/C (dose: 200.0 mg/kg/injection, vehicle: Klucel (hydroxypropylcellulose) (HPC)): 41 % of control

Cc1c2ccccc2c(C)c2c1cc(C(=O)O)c1ccccc12
T/C (dose: 37.5 mg/kg/injection, vehicle: saline with Tween-80): 150 % of control
T/C (dose: 150.0 mg/kg/injection, vehicle: saline with Tween-80): 113 % of control
T/C (dose: 300.0 mg/kg/injection, vehicle: saline with Tween-80): 85 % of control

COc1ccc2oc(-c3ccc(Cl)cc3)c(N3CCN(C)CC3)c2c1
T/C (dose: 75.0 mg/kg/injection, vehicle: saline): 21 % of control
T/C (dose: 150.0 mg/kg/injection, vehicle: saline): 24 % of control

Nc1ccc(S(=O)(=O)Nc2cnc3c(Cl)cccc3n2)cc1
T/C (dose: 220.0 mg/kg/injection, vehicle: saline): 70 % of control
T/C (dose: 315.0 mg/kg/injection, vehicle: saline): 53 % of control
T/C (dose: 450.0 mg/kg/injection, vehicle: saline): 43 % of control
T/C (dose: 642.9 mg/kg/injection, vehicle: saline): 52 % of control
